Data set [1] deals with HCT-116 human colon carcinoma cell line. Description: WST-1 cell viability assay, HCT-116. Type of data set: cell-based. To be noted: Homo sapiens, HCT-116; WST-1, 24 h treatment, mean ± S.D of three independent experiments. The text has this: (§1) The synthesized compounds were screened for their cytotoxicity on five cancer cell lines, namely SK-OV-3, MCF-7, MDA-MB-231, HCT-116 and RKO, using a WST colorimetric assay. The assay principle is based upon the reduction of the tetrazolium salt WST-1 to formazan by cellular mitochondrial dehydrogenases present in viable cells. […] Among the latter compounds the benzohydrazide derivative 9a emerged with the lowest IC50 in this study against MCF-7 cells compared to 5-FU. […] Based on the fact that 9a had less cytotoxic effects on normal breast epithelial cells it was subjected to further studies.
The following cell lines were used for the screening stage, obtained from the American Type Culture Collection (ATCC, Manassas, VA, USA); SK-OV-3 (HTB-77), MCF-12A (ATCC CRL-10782), MDA-MB-231 (ATCC HTB-26), HCT-116 (CCL-247), RKO (CRL-2577) and sub-culturing of the above cell lines was conducted in 75 cm^2 flasks. The old culture media was removed and discarded after assessing the confluency of the cells and the cells were rinsed with 2–3 mL diluted trypsin (1×) (trypsin/EDTA solution consists of 0.025% trypsin and 0.01% EDTA in PBS), for about 5 minutes for complete detachment. The cells were observed under the inverted microscope until the cell layer is completely dispersed. 75 cm^2 flasks were prepared and 16 mL of DMEM media for SK-OV-3, MCF-7, MDA-MB-231, (DMEM 4500 mg glucose) and RPMI media for HCT-116 were added to each flask. The cells were aspirated gently and added to the flasks. DMEM 4500 mg/L high glucose with 10% FBS, 5% streptomycin and penicillin, RPMI 1640 (prepared by adding 5% heat-inactivated FCS and 2 mm glutamine) were used. DMEM was also used for MCF-12A cells with the addition of human epidermal growth factor 20 ng/mL, insulin 0.01 mg/mL and hydrocortisone 500 ng/mL.
The synthesized compounds were screened for their anti-proliferative activity using 5-FU (F6627-1G, Sigma-Aldrich, St. Louis, MO, USA) as reference compound. A concentration of 0.4% DMSO was used in all experiment after ensuring 100% viability of the cell lines with this concentration. A 25 mM stock concentration of all compounds was prepared for further studies and analysis.
Cells were trypsinized and placed in a 15 mL Falcon tube, the cells were centrifuged for 3 min at 1000 rpm. Trypsin is decanted using a sterile pipette and then the pellet is loosened by flicking the tube few times then 5–10 mL warm DMEM or RPMI were added to the Falcon tube and the pellet is resuspended. Cell count was done next by taking 10 μL of the suspension into the cell counting slide and read under 10× cells/mL. A cell stock of 50,000 cells/mL was prepared for the 96 wells. Cells (100 μL) were added to each well using a sterile pipette each time to ensure consistency. The experiment was planned ahead of time using excel sheet, 3–6 wells were reserved as blank media while 3–6 wells for vehicle (DMSO). The plate was incubated for 24 h for compound treatment step. DMEM media was used to prepare different dilutions of the compounds. The old DMEM media was removed from the wells using sterile pipette in the hood and the media was replaced with 100 μL media with each compound. The plate was incubated for 24 h. After 24 h incubation, WST-1 reagent (Sigma) was added to each well and then the plate was incubated for 1 h before measuring the absorbance using VICTOR™ Multilabel Plate Reader (Perkin Elmer, Beaconsfield, UK). The absorbance of the colored solution can be quantified by measuring at a certain wavelength (usually between 500–600 nm), in this experiment the first reading was conducted at 540 nm and the second reading at 690 nm for the reference wavelength. The percentage of cell viability was determined as the ratio of the absorbance of the sample vs the control. Three independent experiments were performed. […] 5-Florouracil (Sigma-Aldrich, F6627-1G) was used as reference standard.
In general terms: Formazan colour is commonly taken as a measure of viable cells.

The subject of data set [2] is MCF-7 cells. Description: Morphological examination of MCF-7 cells. Type of data set: cell-based, human. To be noted: 24 h. As for the experimental part: The morphological changes in MCF-7 cells were followed up after treatment with different concentrations of compound 9a (0.05, 0.1, 0.5, 2, 5 and 10 μM) for 24 h. […] Untreated cells were used as a negative control.
Morphological examination was performed as described previously; MCF-7 cells were plated on 96 well plates using 5 × 10^4 cells/well and allowed to reach 75%–85% confluence. The compounds were added to the medium, untreated cells were used as negative control, in addition to blank cells (medium) and vehicle which consist of (DMSO 0.4% + cells). After treatment, all the cells were incubated for 24 h in an atmosphere containing 5% CO2. After […] of treatment, the morphological changes of the cells were examined and photographs were taken using an inverted microscope at 400× magnification.

Data set [3] in a line: WST-1 cell viability assay, MCF-12a normal cells. Type of data set: cell-based, human. To be noted: human, MCF-12a normal breast epithelial cells, 2 μM, 24 h.
Description: as §1, with “studies. […]” for “studies.”
(§2) Cells were trypsinized and placed in a 15 mL Falcon tube, the cells were centrifuged for 3 min at 1000 rpm. […] Cell count was done next by taking 10 μL of the suspension into the cell counting slide and read under 10× cells/mL. […] After 24 h incubation, WST-1 reagent (Sigma) was added to each well and then the plate was incubated for 1 h before measuring the absorbance using VICTOR™ Multilabel Plate Reader (Perkin Elmer, Beaconsfield, UK). The absorbance of the colored solution can be quantified by measuring at a certain wavelength (usually between 500–600 nm), in this experiment the first reading was conducted at 540 nm and the second reading at 690 nm for the reference wavelength. The percentage of cell viability was determined as the ratio of the absorbance of the sample vs the control. […]

Data set [4] has as its system MCF-12a normal breast epithelial cells. Briefly: WST-1 cell viability assay, MCF-12a normal cells. Type of data set: cell-based, human. To be noted: Homo sapiens, MCF-12A.
Description: as §1, with “studies. […]” for “studies.”
as §2

The subject of data set [5] is MCF-7 cells. Briefly: Flow cytometric cell cycle analysis (PI staining). Type of data set: cell-based, human. To be noted: 2 μM, 24 h; control group 37%. As to the method: Flow cytometry is considered one of the specific tools for the investigation of molecular and morphological events occurring during cell death and cell proliferation. Therefore, the effect of compound 9a on cell cycle progression was studied by flow cytometry in propidium iodide (PI) stained cells. The percent of cells in G1, S, G2 phases was determined after treating cells with 2 μM of 9a for 24 h (Figure 4D). […] Thus, it can be concluded that compound 9a inhibits the proliferation of MCF-7 cells and the growth inhibition is associated with induction of G1 phase arrest. p27 is considered as an important regulator of cell cycle. To determine whether compound 9a-induced G1 arrest was associated with increased p27 level, and to study the effect on the expression of CDK2 and CDK4 involved in cell cycle progression, cells were analyzed for the expression of these proteins using western blot analysis after treatment with 2 μM of 9a for 24 h.
MCF-7 cells were seeded in 25 cm^2 flasks until reaching the desirable confluence of 1 million cells and media was changed to media containing compound 9a (2 μM). After 24 h incubation, the cells were harvested by trypsinization to detach the cells without affecting the integrity of the cell membrane. The cells were incubated with PI for 5 min at room temperature, washed twice with PBS and […]. […]
(In general: In flow cytometry, cells or beads pass a laser one at a time.)

For orientation: IC50 means the concentration at which inhibition is half-maximal. A low value points to higher potency. Broadly, the viability is a read-out of living cells in per cent, often relative to untreated cells. For the compound `COc1ccc(-c2cc(-c3ccc(OC)c(OC)c3)c(C#N)c(OCC(=O)NNC(=O)c3ccccc3)n2)cc1OC` [Compound 9a, N'-[2-(3-cyano-4,6-bis(3,4-dimethoxyphenyl)pyridin-2-yloxy)acetyl]benzohydrazide], the IC50 is 7.12 ± 0.37 µM in data set [1] and 7.5 ± 0.25 µM in data set [4]. Besides, the morphological changes entry is recorded as “no morphological changes were observed” in the data set on MCF-7 cells [2] (0.05, 0.1 and 0.5 μM); “apoptotic features were observed” with MCF-7 cells [2] (2, 5 and 10 μM). The viability at 24 h, 2 µM in data set [3] is ~74%. Also, the “percent of G1 population” value in the data set on MCF-7 cells [5] worked out at 54%.
